Results published in paper PMC5458078, “Global mapping of CARM1 substrates defines enzyme specificity and substrate recognition” (Nature Communications, 2017).
Like-named read-outs stand apart in the source and are kept apart here.

Experiments:
[1] = system: MCF7 CARM1 KO cells; experiment: Quantitative MS of ADMA-containing peptides in MCF7 CARM1 KO cells expressing CARM1 28-608 or CARM1 140-608, and in CARM1 KO; format: cell-based, human
[2] = system: MCF7 cells; experiment: Quantitative nanoLC-MS/MS (TMT) of ADMA-containing peptides, CARM1 KO vs parental; format: cell-based, human; set-up: Fold change KO/WT: scale not given here
[3] = difference of log2 means, CARM1 140-608 vs WT
[4] = difference of log2 means, KO vs WT
[5] = ADMA-containing peptide, CARM1 knockout (KO) vs wild type (WT) MCF7 cells, 6-plex TMT experiment #1, three biological replicates each, sheet "MCF7"
[6] = mean, CARM1 140-608 versus WT (log2 scale)
[7] = mean, CARM1 KO versus WT (log2 scale)
[8] = MCF7 CARM1 knockout vs wild type, 3 biological replicates each, values are on log2 scale
[9] = CARM1 140-608 versus WT, difference of mean log2 values
[10] = CARM1 KO versus WT, difference of mean log2 values
[11] = CARM1 KO vs wild type MCF7 cells, 3 biological replicates each
[12] = log2 scale ratio, mean of n = 3
[13] = ADMA-containing peptide, MCF7, CARM1 knockout (KO1-3) vs wild type (WT1-3), TMT 6-plex experiment #1
[14] = CARM1 140-608 versus WT, mean of three replicates (log2)
[15] = KO versus WT, mean of three replicates (log2)
[16] = MCF7, CARM1 KO (KO1-KO3) vs wild type (WT1-WT3)
[17] = CARM1 140-608 vs WT, mean of 3 replicates, log2
[18] = KO vs WT, mean of 3 replicates, log2
[19] = MCF7, CARM1 KO vs WT, three biological replicates each
[20] = ratio on log2 scale, mean of 3 replicates

Substance: VrPVLNLPGPGPALPrALER
- CARM1 140-608/WT [1, 3]: -2.008
- KO/WT [1, 4]: -2.391
- Fold change KO/WT [2, 5]: -2.391

Substance: AYGQQYWGQPGNrGGYRNFYDR
- CARM1 140-608/WT [1, 6]: -0.3814
- KO/WT [1, 7]: 1.342
- Fold change KO/WT [2, 8]: 0.6249

Substance: HASErGHLR
- CARM1 140-608/WT [1, 9]: 0.2697
- KO/WT [1, 10]: 1.422
- Fold change KO/WT [2, 11]: 1.422

Substance: NELIArYIK
- CARM1 140-608/WT [1, 12]: -0.332
- KO/WT [1, 12]: -0.02143
- Fold change KO/WT [2, 13]: 0.1085

Substance: APrFPSNIIVTNGAAR
- CARM1 140-608/WT [1, 14]: -0.8621
- KO/WT [1, 15]: -1.771
- Fold change KO/WT [2, 16]: -1.771

Substance: GRPSSPrTPLYLQPDAYGSLDR
- CARM1 140-608/WT [1, 14]: -1.266
- KO/WT [1, 15]: -1.386
- Fold change KO/WT [2, 16]: -1.386

Substance: QMAVPSFTQQILCPKPVHVrPPMPPrYPAPYGER
- CARM1 140-608/WT [1, 14]: 0.05331
- KO/WT [1, 15]: -2.9202
- Fold change KO/WT [2, 5]: -2.943

Substance: TATVTIrPNTSGSGGTTSNSQVITGPQIrPGMTVIrTPLQQSTLGK
- CARM1 140-608/WT [1, 17]: 1.9774
- KO/WT [1, 18]: -1.958
- Fold change KO/WT [2, 19]: -2.17

Substance: FFEAAAGSGSSAGAGDGAGPQrLPEPGGRPR
- CARM1 140-608/WT [1, 3]: -1.027
- KO/WT [1, 4]: -1.059
- Fold change KO/WT [2, 5]: -1.059

Substance: SKPQLArYLGGSMDLSTFDFR
- CARM1 140-608/WT [1, 3]: -0.3331
- KO/WT [1, 4]: -0.5289
- Fold change KO/WT [2, 5]: -0.3057

Substance: KPLPLGVrAPLAGPSAAAR
- CARM1 140-608/WT ([1]; CARM1 140-608 vs WT, mean of 3 replicates (log2 scale)): -2.373
- KO/WT ([1]; KO vs WT, mean of 3 replicates (log2 scale)): -2.562
- Fold change KO/WT [2, 16]: -2.562

Substance: GAAGAVTQSLSrTPTATTSGIrATLTPTVLAPrLPQPPQNPTNIQNFQLPPGMVLVR
- CARM1 140-608/WT [1, 12]: -3.099
- KO/WT [1, 12]: -4.565
- Fold change KO/WT [2, 13]: -4.565

Substance: QLQLQQQrMQLAQK
- CARM1 140-608/WT [1]: -2.654
- KO/WT [1]: -4.55
- Fold change KO/WT [2, 8]: -4.395

Substance: FSPNPPQQGAVrPQTLNFSSR
- CARM1 140-608/WT [1, 20]: 1.2079
- KO/WT [1, 20]: -1.542
- Fold change KO/WT [2, 19]: -3.724

Substance: AVCSTPLSSSLLGPPGTSALPrLSR
- CARM1 140-608/WT [1, 3]: -2.222
- KO/WT [1, 4]: -3.255
- Fold change KO/WT [2, 5]: -3.255

Substance: VSTSGPrAFSSR
- CARM1 140-608/WT [1, 3]: -3.216
- KO/WT [1, 4]: -3.388
- Fold change KO/WT [2, 8]: -3.388

Substance: AGGLLGTGSGLNLrMAGPQGLDLAPILR
- CARM1 140-608/WT [1, 20]: -0.05646
- KO/WT [1, 20]: -2.802
- Fold change KO/WT [2, 19]: -3.029

Substance: DLPLHPrGFLPGHAPFrPLGSLGPrEYFIPGTrLPPPTHGPQEYPPPPAVR
- CARM1 140-608/WT [1, 3]: -0.2675
- KO/WT [1, 4]: -2.443
- Fold change KO/WT [2, 5]: -1.638

Substance: EYFIPGTrLPPPTHGPQEYPPPPAVR
- CARM1 140-608/WT [1, 3]: 0.04953
- KO/WT [1, 4]: -1.295
- Fold change KO/WT [2, 5]: -1.126

Substance: SAPFFIPTIPGLVPrYAAPEQNNDPQQSK
- CARM1 140-608/WT [1, 9]: -3.554
- KO/WT [1, 10]: -5.228
- Fold change KO/WT [2, 11]: -5.228

Substance: TPTATTSGIrATLTPTVLAPR
- CARM1 140-608/WT [1, 12]: 0.4696
- KO/WT [1, 12]: -2.089
- Fold change KO/WT [2, 13]: -1.669

Substance: LGHDAYrLGQDPYrLGHDPYR
- CARM1 140-608/WT [1]: -1.958
- KO/WT [1]: -1.784
- Fold change KO/WT [2, 13]: -1.784

Substance: MRPQPYGGTNPYSQQQGPPSGPQQGHGYPGQPYGSQTPQrYPMTMQGR
- CARM1 140-608/WT [1, 17]: -0.1711
- KO/WT [1, 18]: -1.781
- Fold change KO/WT [2, 19]: -2.959

Substance: GVGPPrGALVrGTPVrGAITR
- CARM1 140-608/WT [1, 6]: 0.2467
- KO/WT [1, 7]: 0.3361
- Fold change KO/WT [2, 8]: -0.04858

Substance: FrHNIAYFPQIVSVAAR
- CARM1 140-608/WT [1, 6]: -0.3364
- KO/WT [1, 7]: -0.6457
- Fold change KO/WT [2, 8]: -0.6457

Substance: QAPrDGLTPVPPLAPAPrPPSSGLPAVLNPrPTLTPGrLPTPTLGTArAPMPTPTLVrPLLK
- CARM1 140-608/WT [1, 12]: -2.613
- KO/WT [1, 12]: -4.977
- Fold change KO/WT [2, 13]: -4.977

Substance: QGSIGLYTQNQPLPAGGPrVDPYrPVrLPMQK
- CARM1 140-608/WT [1, 3]: -2.266
- KO/WT [1, 4]: -3.357
- Fold change KO/WT [2, 5]: -2.292

Substance: QrGVSHAMGGrGGINR
- CARM1 140-608/WT [1, 12]: 0.2049
- KO/WT [1, 12]: 0.2554
- Fold change KO/WT [2, 13]: 0.102

Substance: STLKPQPAPQAGPIPVAPIGTLKPQPQPVPASYTTASTSSrPTFNVQVK
- CARM1 140-608/WT [1, 3]: -2.676
- KO/WT [1, 4]: -3.941
- Fold change KO/WT [2, 8]: -3.941

Substance: LFHLPEYTWrLPCGGVR
- CARM1 140-608/WT [1, 12]: 0.09104
- KO/WT [1, 12]: -2.175
- Fold change KO/WT [2, 13]: -2.1298

Substance: TDGFAEAIHSPQVAGVPrFR
- CARM1 140-608/WT [1, 9]: -1.17
- KO/WT [1, 10]: -1.53
- Fold change KO/WT [2, 13]: -1.53

Substance: ELSHPPLYrLPLLENAETPQ
- CARM1 140-608/WT [1, 12]: -1.659
- KO/WT [1, 12]: -3.498
- Fold change KO/WT [2, 13]: -3.498

Substance: QrLPFSAPPGSVVEASSNLR
- CARM1 140-608/WT [1, 3]: -0.4663
- KO/WT [1, 4]: -1.419
- Fold change KO/WT [2, 8]: -1.459
